The species named for test [1] is Homo sapiens. Briefly: Psychotomimetic potency of compound relative to that of mescaline (Human potency of mescaline = 1 MU). The format is functional.
Test [2] is filed under the species Homo sapiens. Put plainly: Psychotomimetic potency of compound relative to that of mescaline(Human potency of mescaline = 1 MU). The format is functional.

Data on 25 compounds can be found in ChEMBL document CHEMBL1122687, “Sulfur analogues of psychotomimetic agents. 3. Ethyl homologues of mescaline and their monothio analogues” (1984).

Take `CCOc1cc(CCN)cc(SCC)c1OC`: the Relative activity in the test listed under Homo sapiens [1] is <1. Turning to `CCOc1cc(CCN)cc(OCC)c1OC`, the Relative activity in the test listed under Homo sapiens [1] was <1. As for `COc1cc(CCN)cc(OC)c1SC`, the Relative activity in the test listed under Homo sapiens [1] is 12.

In the case of `CCOc1cc(CCN)cc(OCC)c1SC`, the Relative activity in the test filed under Homo sapiens [1] is reported as <1. `CCCCSc1c(OC)cc(CCN)cc1OC`: the Relative activity in the test listed under Homo sapiens [1] stood at 3. In the test listed under Homo sapiens [2], `COc1cc(CCN)cc(SC)c1OC` returned a Relative activity of 6. As to `CCCCOc1c(OC)cc(CCN)cc1OC`, the Relative activity in the test filed under Homo sapiens [1] came out at 2. Compound `CCSc1cc(CCN)cc(OC)c1OC` had a Relative activity in the test filed under Homo sapiens [1] of 6. `CCOc1cc(CCN)cc(OCC)c1SCC`: the Relative activity in the test listed under Homo sapiens [1] was <1.

`CCOc1cc(CCN)cc(OC)c1OCC` yielded a Relative activity in the test filed under Homo sapiens [1] of 1.5. Regarding `CCCSc1c(OC)cc(CCN)cc1OC`, in the test listed under Homo sapiens [1], the Relative activity amounted to 16. Take `CCOc1cc(CCN)cc(SC)c1OC`: the Relative activity in the test filed under Homo sapiens [1] is listed as <1. `CCOc1cc(CCN)cc(OC)c1OC` registered a Relative activity in the test listed under Homo sapiens [1] of 1. For `CCOc1cc(CCN)cc(SC)c1OCC`, in the test listed under Homo sapiens [1], the Relative activity was found to be 2. Consider `CCOc1cc(CCN)cc(SCC)c1OCC`, for which the Relative activity in the test listed under Homo sapiens [1] is <1. As to `CCCOc1c(OC)cc(CCN)cc1OC`, in the test listed under Homo sapiens [1], the Relative activity is listed as 10. In the case of `CCCOc1cc(CCN)cc(OC)c1OC`, the Relative activity in the test listed under Homo sapiens [1] is <1.

Consider `CCOc1c(OC)cc(CCN)cc1SCC`, for which the Relative activity in the test filed under Homo sapiens [1] worked out at 2.

`CCOc1cc(CCN)cc(OC)c1SCC` came in with a Relative activity in the test filed under Homo sapiens [1] of 4. `CCOc1cc(CCN)cc(OC)c1SC` had a Relative activity in the test listed under Homo sapiens [1] of 4.

For the compound `CCSc1c(OC)cc(CCN)cc1OC`, the Relative activity in the test filed under Homo sapiens [1] stood at 20.

`COc1cc(CCN)cc(OC)c1OC` [MESCALINE] yielded a Relative activity in the test filed under Homo sapiens [2] of 1. Take `CCOc1c(OC)cc(CCN)cc1OC`: the Relative activity in the test listed under Homo sapiens [1] was 6. Take `CCOc1c(OC)cc(CCN)cc1SC`: the Relative activity in the test listed under Homo sapiens [1] was 6. In the case of `CCOc1cc(CCN)cc(OCC)c1OCC`, the Relative activity in the test filed under Homo sapiens [1] is recorded as <1.
